Earlier results as cited in patent US20190307696A1, “TABLETS COMPRISING MIRABEGRON AND SOLIFENACIN” (SYNTHON B.V., priority 2016, published 2019).

Experiments:
[1] = neutral to acidic pH
[2] = presence of food in the GI tract

permeability (BCS): low permeability
solubility (BCS): high solubility
SMILES: Nc1nc(CC(=O)Nc2ccc(CCNC[C@H](O)c3ccccc3)cc2)cs1 [Mirabegron]
solubility in water [1]: soluble in water between neutral to acidic pH
bioavailability [2]: affected by the presence of food in the GI tract
